{"source": "patent US20060206946A1", "about": "“Method of disrupting heme transport in nematodes and of modelling and evaluating eukaryotic heme transport” (priority 2005, published 2006)", "key": {"[1]": {"tested_on": "C. elegans mutant IH1068 d", "assay": "Growth of heme resistant mutant in CeHR medium", "type": "in vivo, Caenorhabditis elegans", "set-up": "key to Growth 1.6 μM hemin / Growth 0.5 μM GaPP: + = wild type equivalent In growth; ND: No growth", "procedure": "(§1) To further increase the stringency of our genetic screen we split the contents from each 800 μM hemin selection flasks into two flasks containing either 800 μM or 1000 μM hemin. This allowed us to use another tier of positive selection to identify mutants with greater resistance to heme toxicity. Mutants from each flask were isolated and treated as a separate entity by giving an identification number based on the Genetic Nomenclature Guidelines used for C. elegans (http://biosci.umn.edu/CGC/Nomenclature/nomenguid.htm). To eliminate EMS-induced spurious mutations that could result in false positive, the mutants were outcrossed to wild-type N2 males. After five outcrosses, which replaces ˜97% of the mutant genome, mutants that bred true were selected for further analysis. Using this procedure, we isolated 13 individual mutants that were resistant to heme toxicity. These mutants were further characterized by analyzing Mendelian segregation ratios, X-linkage, phenotype penetrance, generation times, brood size, and their ability to grow under low hemin. […] This observation was surprising because we anticipated that high heme-resistant mutants will grow poorly under low heme. Based on the mutant's growth profile at low and high heme levels, we broadly categorized them into three phenotypic classes: class A, class B and class C (FIG. 13). These “phenoclusters” have the following growth phenotype: (a) three mutants IH728, IH938, IH731 show with robust growth under low and high (≧800 μM heme (FIG. 13B), (b) one mutant IH828 show exceptional growth under low heme, moderate growth at ≦800 μM heme, and no growth at 1000 μM hemin (FIG. 13C), and (c) six mutants IH921, IH11058, IH1068n, IH1068d, IH1048, and IH718 that show moderate growth under high heme (≦800 μM), but normal growth under low heme (FIG. 13D). By classifying these mutants into phenoclusters, we can focus our efforts on the phenotypic datasets to map the molecular networks and pathways involved in heme dependent processes. For instance, mutants in a cluster may have mutations within the same gene or in multiple genes but within the same pathway.\n(§2) Worm Culture and Growth Assays. Free-living worms were cultured in CeHR axenic liquid medium (Dr. Eric Clegg, Personal Communication). […] CeHR medium was modified (henceforth called mCeHR) to eliminate all sources of exogenously added heme; basal growth medium comprised 20 μM hemin chloride (Frontier Scientific, Logan, Utah) and 150 μM of ferrous ammonium sulfate (Sigma Chemicals). Worm strains were grown in mCeHR medium under aerobic conditions in tissue culture flasks at 20° C. ˜3.7×10^6 worms were routinely obtained after 3.5 to 4 days in a T75 flask with 30 ml basal medium from an initial inoculum of −1.5×10^5 worms. For initial culturing of worms in axenic media, three generations of worms were sequentially bleached (1.1% bleach/0.55 M NaOH) to eliminate any contaminating bacterial carryover from agar plates. In all dose-response experiments, worms were growth synchronized by treating the gravid hermaphrodite worms with bleach to dissolve adult worms. The eggs, resistant to bleach, were liberated from the carcasses and extensively washed with M9 buffer followed by overnight hatching in M9 buffer to synchronize growth. By harvesting at appropriate time intervals, synchronous larval stages and adult staged worms were collected for experimental manipulations. Identical numbers of synchronized L1 larvae were inoculated into media with different heme concentrations in 12- or 24-well culture plates. Worm growth was monitored each day and an aliquot was obtained for counting by microscopy usually at days 3, 6, and 9. The worms in each well were counted twice and each growth condition was analyzed in triplicate. P values for statistical significance were calculated utilizing a one-way ANOVA with Student-Newman-Keuls multiple comparison test using GraphPad Instat version 3.01. […]"}, "[2]": {"tested_on": "C. elegans mutant IH1068 n", "assay": "Growth of heme resistant mutant in CeHR medium", "type": "in vivo, Caenorhabditis elegans", "set-up": "key to Growth 1.6 μM hemin / Growth 0.5 μM GaPP: + = wild type equivalent In growth; ND: No growth", "procedure": "as §1, §2"}, "C. elegans mutant IH1048": {"tested_on": "C. elegans mutant IH1048", "assay": "Growth of heme resistant mutant in CeHR medium", "type": "in vivo, Caenorhabditis elegans", "set-up": "key to Growth 1.6 μM hemin / Growth 0.5 μM GaPP: + = wild type equivalent In growth; ND: No growth", "procedure": "as §1, §2"}, "C. elegans mutant IH828": {"tested_on": "C. elegans mutant IH828", "assay": "Growth of heme resistant mutant in CeHR medium", "type": "in vivo, Caenorhabditis elegans", "conditions": "in vivo", "procedure": "as §1, §2"}, "C. elegans mutant IH718": {"tested_on": "C. elegans mutant IH718", "assay": "Growth of heme resistant mutant in CeHR medium", "type": "in vivo, Caenorhabditis elegans", "set-up": "key: + = wild type equivalent In growth; ND: No growth", "procedure": "To further increase the stringency of our genetic screen we split the contents from each 800 μM hemin selection flasks into two flasks containing either 800 μM or 1000 μM hemin. This allowed us to use another tier of positive selection to identify mutants with greater resistance to heme toxicity. Mutants from each flask were isolated and treated as a separate entity by giving an identification number based on the Genetic Nomenclature Guidelines used for C. elegans (http://biosci.umn.edu/CGC/Nomenclature/nomenguid.htm). To eliminate EMS-induced spurious mutations that could result in false positive, the mutants were outcrossed to wild-type N2 males. After five outcrosses, which replaces ˜97% of the mutant genome, mutants that bred true were selected for further analysis. Using this procedure, we isolated 13 individual mutants that were resistant to heme toxicity. […]\nWorm Culture and Growth Assays. […] Worm growth was monitored each day and an aliquot was obtained for counting by microscopy usually at days 3, 6, and 9. The worms in each well were counted twice and each growth condition was analyzed in triplicate. P values for statistical significance were calculated utilizing a one-way ANOVA with Student-Newman-Keuls multiple comparison test using GraphPad Instat version 3.01. […]"}, "[3]": {"tested_on": "C. elegans wild-type N2 strain", "assay": "Worm culture and growth assay in axenic CeHR/mCeHR liquid medium", "type": "in vivo", "set-up": "key to Growth 1.6 μM hemin / Growth 0.5 μM GaPP: + = wild type equivalent In growth; ND: No growth", "procedure": "(D) Biphasic response of C. elegans cultured in the presence of increasing amounts of hemin chloride (μM). Equal numbers of synchronized L1 larvae were grown in 24-well plates in mCeHR medium for 9 days and quantified (worms/μl) by microscopy. Each data point represents the mean±SD from three separate experiments performed in triplicate.\n(A) Aerobic growth of C. elegans in mCeFIR medium with 20 μM hemin supplemented with either gallium protoporphyrin IX (GaPP) or gallium salts. Synchronized L1 larvae were grown for 9 days in 24-well plates and quantified (worms/μl) by microscopy. Each data point represents the mean from a single experiment, and each experiment was performed in triplicate. Inset depicts the GaPP analysis at lower concentrations for clarity.\n(B) Effect of heme on the cytotoxicity of GaPP. Synchronized L1 larvae were inoculated in 24-well plates containing mCeHR medium with either 0, 2, 4, or 6 μM GaPP and increasing hemin (μM). The number of worms per μl was measured on day 9 and the data are presented as mean±SD.\nFIG. 9 depicts worm utilization of heme-iron under iron deprivation. Equal numbers of synchronized L1 larvae were grown in the presence of 4, 20, and 100 μM hemin, either in basal mCeHR medium (set 1), or basal medium lacking exogenous iron (set 2), or as set 2 with 1 μM of the iron chelator ferrozine (set 3), or as set 3 with 486 μM ferrous ammonium sulfate (set 4). These values of ferrozine and iron were empirically determined by performing dose-response experiments and analyzing worm growth. The number of worms per μl was measured on day 9 and the data presented as mean±SD performed in triplicate. P<0.001 between sets 1 and 3.\nTo qualitatively and quantitatively determine the heme requirement of C. elegans, we assessed growth at various heme concentrations. Equal numbers of L1 larvae were inoculated in CeHR medium with either no cytochrome c and hemin, or with cytochrome c and increasing amounts of hemin (FIG. 4A). The effect of hemin became apparent within 48 hours and by 9 days, the heme-deplete worms were severely growth retarded at the L1/L2 stages. […] However, this stimulatory effect of heme was toxic to worms grown at heme concentrations >750 μM. To quantitatively assess the effect of heme on worms, we counted the number of live worms grown under different concentration of heme using DIC microscopy. […] On the basis of this association between heme and the growth and reproduction of C. elegans, we conclude that the biphasic nature of heme is likely due to the need for heme under heme-deprived conditions to perform essential metabolic functions, and the lethality of heme at high concentrations can be attributed to its cytotoxic activity.\nas §2, with “manipulations.” for “manipulations. Identical numbers of synchronized L1 larvae were inoculated into media with different heme concentrations in 12- or 24-well culture plates. Worm growth was monitored each day and an aliquot was obtained for counting by microscopy usually at days 3, 6, and 9. The worms in each well were counted twice and each growth condition was analyzed in triplicate. P values for statistical significance were calculated utilizing a one-way ANOVA with Student-Newman-Keuls multiple comparison test using GraphPad Instat version 3.01.”"}}}
{"smiles": "C=CC1=C(C)C2=[N+]3C1=Cc1c(C)c(C=C)c4[n]1[Ga-]31[n]3c(c(C)c(CCC(=O)O)c3=CC3=[N+]1C(=C4)C(C)=C3CCC(=O)O)=C2", "note": "(centres unmarked) [GaPP, gallium protoporphyrin IX]", "values": [{"measurement": "Growth 0.5 μM GaPP", "setting": "[1]", "result": "+"}, {"measurement": "Growth 0.5 μM GaPP", "setting": "[2]", "result": "+"}, {"measurement": "Growth 0.5 μM GaPP", "setting": "C. elegans mutant IH1048", "result": "+"}, {"measurement": "resistance of IH828 to GaPP toxicity", "setting": "C. elegans mutant IH828", "result": "extremely resistant"}, {"measurement": "Growth 0.5 μM GaPP", "setting": "C. elegans mutant IH718", "result": "+"}, {"measurement": "toxic effect of GaPP in the presence of increasing levels of hemin", "setting": "[3]; 0, 2, 4 or 6 μM GaPP, day 9", "result": "attenuated"}, {"measurement": "toxicity rank among six non-iron metalloporphyrins tested", "setting": "[3]; 4 μM hemin", "result": "most toxic heme analog"}, {"measurement": "Growth 0.5 μM GaPP", "setting": "[3]; Control Wild-type (N2)", "result": "+"}, {"measurement": "sensitivity compared to hemin", "setting": "[3]; F1 progeny", "result": "3,200 fold"}, {"measurement": "GaPP concentration at which worms were growth arrested", "setting": "[3]; F1 progeny of surviving P0 worms grown at lower GaPP", "result": 0.25, "unit": "µM"}, {"measurement": "toxicity relative to hemin", "setting": "[3]; P0 and F1 animals", "result": "800-3000 times"}, {"measurement": "sensitivity compared to hemin", "setting": "[3]; P0 worms", "result": 800, "unit": "fold"}, {"measurement": "GaPP concentration at which worms were growth retarded", "setting": "[3]; P0 worms, medium with hemin", "result": 1, "unit": "µM"}, {"measurement": "sensitivity of worms to GaPPIX compared to heme", "setting": "[3]; in vivo", "result": 30, "unit": "times"}]}
